This is an account of results in patent US20230295197A1, “STAT5 and STAT6 Degraders and Uses Thereof” (REGENTS OF THE UNIVERSITY OF MICHICAN, priority 2022, published 2023).

This experiment deals with T1, STAT6 (Homo sapiens, UniProt P42226).
T1 construct: endogenous in cells; host or cells: MOLM-16, KU-812, SKNO1, MB231, L1236
T1 sequence (P42226 1-847): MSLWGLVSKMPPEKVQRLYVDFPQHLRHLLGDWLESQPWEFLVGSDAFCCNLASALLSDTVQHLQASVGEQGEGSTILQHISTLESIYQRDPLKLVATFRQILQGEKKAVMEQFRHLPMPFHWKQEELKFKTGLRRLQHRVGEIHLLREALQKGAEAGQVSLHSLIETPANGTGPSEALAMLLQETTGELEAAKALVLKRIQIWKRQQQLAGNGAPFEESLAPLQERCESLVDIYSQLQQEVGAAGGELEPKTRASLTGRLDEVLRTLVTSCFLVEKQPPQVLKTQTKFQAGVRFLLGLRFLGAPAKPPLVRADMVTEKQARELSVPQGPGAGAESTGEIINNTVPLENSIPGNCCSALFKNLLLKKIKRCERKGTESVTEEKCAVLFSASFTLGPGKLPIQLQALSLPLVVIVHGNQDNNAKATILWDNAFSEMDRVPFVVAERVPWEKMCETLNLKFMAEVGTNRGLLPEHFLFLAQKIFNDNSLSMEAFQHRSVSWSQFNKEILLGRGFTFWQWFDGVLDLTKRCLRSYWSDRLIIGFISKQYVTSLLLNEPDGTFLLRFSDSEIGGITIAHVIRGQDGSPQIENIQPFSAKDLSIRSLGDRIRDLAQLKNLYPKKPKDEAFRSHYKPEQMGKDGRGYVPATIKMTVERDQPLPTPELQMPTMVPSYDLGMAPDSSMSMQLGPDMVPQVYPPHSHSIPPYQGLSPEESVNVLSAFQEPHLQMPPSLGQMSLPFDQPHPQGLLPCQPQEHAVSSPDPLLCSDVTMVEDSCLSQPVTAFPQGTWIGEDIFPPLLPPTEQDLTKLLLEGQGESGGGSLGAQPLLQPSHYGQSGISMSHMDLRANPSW
Kind of experiment: Immunoblotting (Western blot) analysis of STAT6 degradation efficiency of degraders in treated cells. The note with it: MOLM-16 cells, class symbols, read-out: DC50 S6 MOLM-16. In kind it is cell-based. The gist of the method: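 Read-out: fluorescent IRDye 680RD/800CW secondaries imaged on an infrared scanner, with band intensities quantified by densitometry and GAPDH serving as loading control. Samples were RIPA lysates, BCA-normalised, from ~1 million treated cells.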
For orientation: DC50 means the concentration at which degradation of the target reaches its halfway point. For the compound `CC(C)(C)[C@H](NC(=O)c1cc2cc(C(F)(F)P(=O)(O)O)ccc2s1)C(=O)N1CCN(C(=O)CC(=O)NCCCCC#Cc2cccc3c2C(=O)N(C2CCC(=O)NC2=O)C3=O)C[C@H]1C(=O)N1CCO[C@H](c2ccccc2)C1` (stereo partly drawn) [Compound 513, ((2-(((2S)-1-((2S)-4-(3-((6-(2-(2,6-dioxopiperidin-3-yl)-1,3-dioxoisoindolin-4-yl)hex-5-yn-1-yl)amino)-3-oxopropanoyl)-2-((R)-2-phenylmorpholine-4-carbonyl)piperazin-1-yl)-3,3-dimethyl-1-oxobutan-2-yl)carbamoyl)benzo[b]thiophen-5-yl)difluoromethyl)phosphonic acid], the DC50 was above 10 µM.

Turning to `CC(C)(C)[C@H](NC(=O)c1cc2cc(C(F)(F)P(=O)(O)O)ccc2s1)C(=O)N1CCN(C(=O)CC(=O)NCCCCC#Cc2ccc3c(c2)C(=O)N(C2CCC(=O)NC2=O)C3=O)C[C@H]1C(=O)N1CCO[C@H](c2ccccc2)C1` (stereo partly drawn) [Compound 514, ((2-(((2S)-1-((2S)-4-(3-((6-(2-(2,6-dioxopiperidin-3-yl)-1,3-dioxoisoindolin-5-yl)hex-5-yn-1-yl)amino)-3-oxopropanoyl)-2-((R)-2-phenylmorpholine-4-carbonyl)piperazin-1-yl)-3,3-dimethyl-1-oxobutan-2-yl)carbamoyl)benzo[b]thiophen-5-yl)difluoromethyl)phosphonic acid], the DC50 is above 10 µM.

As to `CC(C)(C)[C@H](NC(=O)c1cc2cc(C(F)(F)P(=O)(O)O)ccc2s1)C(=O)N1CCN(C(=O)CC(=O)NCCCCCC#Cc2cccc3c2C(=O)N(C2CCC(=O)NC2=O)C3=O)C[C@H]1C(=O)N1CCO[C@H](c2ccccc2)C1` (stereo partly drawn) [Compound 515, ((2-(((2S)-1-((2S)-4-(3-((7-(2-(2,6-dioxopiperidin-3-yl)-1,3-dioxoisoindolin-4-yl)hept-6-yn-1-yl)amino)-3-oxopropanoyl)-2-((R)-2-phenylmorpholine-4-carbonyl)piperazin-1-yl)-3,3-dimethyl-1-oxobutan-2-yl)carbamoyl)benzo[b]thiophen-5-yl)difluoromethyl)phosphonic acid], the 50% degradation concentration (DC50) is above 10 µM.

As for `CC(C)(C)[C@H](NC(=O)c1cc2cc(C(F)(F)P(=O)(O)O)ccc2s1)C(=O)N1CCN(C(=O)CC(=O)NCCCCCC#Cc2ccc3c(c2)C(=O)N(C2CCC(=O)NC2=O)C3=O)C[C@H]1C(=O)N1CCO[C@H](c2ccccc2)C1` (stereo partly drawn) [Compound 516, ((2-(((2S)-1-((2S)-4-(3-((7-(2-(2,6-dioxopiperidin-3-yl)-1,3-dioxoisoindolin-5-yl)hept-6-yn-1-yl)amino)-3-oxopropanoyl)-2-((R)-2-phenylmorpholine-4-carbonyl)piperazin-1-yl)-3,3-dimethyl-1-oxobutan-2-yl)carbamoyl)benzo[b]thiophen-5-yl)difluoromethyl)phosphonic acid], the DC50 was above 10 µM.

In the case of `CC(C)(C)[C@H](NC(=O)c1cc2cc(C(F)(F)P(=O)(O)O)ccc2s1)C(=O)N1CCN(C(=O)CC(=O)NCCCCCCCCC#Cc2cccc3c2C(=O)N(C2CCC(=O)NC2=O)C3=O)C[C@H]1C(=O)N1CCO[C@H](c2ccccc2)C1` (stereo partly drawn) [Compound 517, ((2-(((2S)-1-((2S)-4-(3-((10-(2-(2,6-dioxopiperidin-3-yl)-1,3-dioxoisoindolin-4-yl)dec-9-yn-1-yl)amino)-3-oxopropanoyl)-2-((R)-2-phenylmorpholine-4-carbonyl)piperazin-1-yl)-3,3-dimethyl-1-oxobutan-2-yl)carbamoyl)benzo[b]thiophen-5-yl)difluoromethyl)phosphonic acid], the DC50 was above 10 µM.

`CC(C)(C)[C@H](NC(=O)c1cc2cc(C(F)(F)P(=O)(O)O)ccc2s1)C(=O)N1CCN(C(=O)CC(=O)NCCCCCCCCC#Cc2ccc3c(c2)C(=O)N(C2CCC(=O)NC2=O)C3=O)C[C@H]1C(=O)N1CCO[C@H](c2ccccc2)C1` (stereo partly drawn) [Compound 518, ((2-(((2S)-1-((2S)-4-(3-((10-(2-(2,6-dioxopiperidin-3-yl)-1,3-dioxoisoindolin-5-yl)dec-9-yn-1-yl)amino)-3-oxopropanoyl)-2-((R)-2-phenylmorpholine-4-carbonyl)piperazin-1-yl)-3,3-dimethyl-1-oxobutan-2-yl)carbamoyl)benzo[b]thiophen-5-yl)difluoromethyl)phosphonic acid]: the DC50 was above 10 µM.

Regarding `CC(C)(C)[C@H](NC(=O)c1cc2cc(C(F)(F)P(=O)(O)O)ccc2s1)C(=O)N1CCN(C(=O)CC(=O)NCCCCCCCCCC#Cc2cccc3c2C(=O)N(C2CCC(=O)NC2=O)C3=O)C[C@H]1C(=O)N1CCO[C@H](c2ccccc2)C1` (stereo partly drawn) [Compound 519, ((2-(((2S)-1-((2S)-4-(3-((11-(2-(2,6-dioxopiperidin-3-yl)-1,3-dioxoisoindolin-4-yl)undec-10-yn-1-yl)amino)-3-oxopropanoyl)-2-((R)-2-phenylmorpholine-4-carbonyl)piperazin-1-yl)-3,3-dimethyl-1-oxobutan-2-yl)carbamoyl)benzo[b]thiophen-5-yl)difluoromethyl)phosphonic acid], the DC50 is above 10 µM.

In the case of `CC(C)(C)[C@H](NC(=O)c1cc2cc(C(F)(F)P(=O)(O)O)ccc2s1)C(=O)N1CCN(C(=O)CC(=O)NCCCCCCCCCC#Cc2ccc3c(c2)C(=O)N(C2CCC(=O)NC2=O)C3=O)C[C@H]1C(=O)N1CCO[C@H](c2ccccc2)C1` (stereo partly drawn) [Compound 520, ((2-(((2S)-1-((2S)-4-(3-((11-(2-(2,6-dioxopiperidin-3-yl)-1,3-dioxoisoindolin-5-yl)undec-10-yn-1-yl)amino)-3-oxopropanoyl)-2-((R)-2-phenylmorpholine-4-carbonyl)piperazin-1-yl)-3,3-dimethyl-1-oxobutan-2-yl)carbamoyl)benzo[b]thiophen-5-yl)difluoromethyl)phosphonic acid], the DC50 is above 10 µM.

Regarding `CC(C)(C)[C@H](NC(=O)C1=Cc2cc(C(F)(F)P(=O)(O)O)ccc2C1)C(=O)N1CSN(C(=O)CC(=O)NCC#Cc2cccc3c2C(=O)N(C2CCC(=O)NC2=O)C3=O)C[C@H]1C(=O)N1CCC[C@H](c2ccccc2)C1` (stereo partly drawn) [Compound 521, ((2-(((2S)-1-((4S)-2-(3-((3-(2-(2,6-dioxopiperidin-3-yl)-1,3-dioxoisoindolin-4-yl)prop-2-yn-1-yl)amino)-3-oxopropanoyl)-4-((R)-3-phenylpiperidine-1-carbonyl)-1,2,5-thiadiazinan-5-yl)-3,3-dimethyl-1-oxobutan-2-yl)carbamoyl)-1H-inden-5-yl)difluoromethyl)phosphonic acid], the DC50 was above 10 µM.

As for `CC(C)(C)[C@H](NC(=O)c1cc2cc(C(F)(F)P(=O)(O)O)ccc2s1)C(=O)N1CCN(C(=O)CC(=O)NCC#Cc2ccc3c(c2)C(=O)N(C2CCC(=O)NC2=O)C3=O)C[C@H]1C(=O)N1CCC[C@H](c2ccccc2)C1` (stereo partly drawn) [Compound 522, ((2-(((2S)-1-((2S)-4-(3-((3-(2-(2,6-dioxopiperidin-3-yl)-1,3-dioxoisoindolin-5-yl)prop-2-yn-1-yl)amino)-3-oxopropanoyl)-2-((R)-3-phenylpiperidine-1-carbonyl)piperazin-1-yl)-3,3-dimethyl-1-oxobutan-2-yl)carbamoyl)benzo[b]thiophen-5-yl)difluoromethyl)phosphonic acid], the DC50 is above 10 µM.

In the case of `CC(C)(C)[C@H](NC(=O)c1cc2cc(C(F)(F)P(=O)(O)O)ccc2s1)C(=O)N1CCN(C(=O)CC(=O)NCCC#Cc2cccc3c2C(=O)N(C2CCC(=O)NC2=O)C3=O)C[C@H]1C(=O)N1CCC[C@H](c2ccccc2)C1` (stereo partly drawn) [Compound 523, ((2-(((2S)-1-((2S)-4-(3-((4-(2-(2,6-dioxopiperidin-3-yl)-1,3-dioxoisoindolin-4-yl)but-3-yn-1-yl)amino)-3-oxopropanoyl)-2-((R)-3-phenylpiperidine-1-carbonyl)piperazin-1-yl)-3,3-dimethyl-1-oxobutan-2-yl)carbamoyl)benzo[b]thiophen-5-yl)difluoromethyl)phosphonic acid], the DC50 was above 10 µM.

Regarding `CC(C)(C)[C@H](NC(=O)c1cc2cc(C(F)(F)P(=O)(O)O)ccc2s1)C(=O)N1CCN(C(=O)CC(=O)NCCC#Cc2ccc3c(c2)C(=O)N(C2CCC(=O)NC2=O)C3=O)C[C@H]1C(=O)N1CCC[C@H](c2ccccc2)C1` (stereo partly drawn) [Compound 524, ((2-(((2S)-1-((2S)-4-(3-((4-(2-(2,6-dioxopiperidin-3-yl)-1,3-dioxoisoindolin-5-yl)but-3-yn-1-yl)amino)-3-oxopropanoyl)-2-((R)-3-phenylpiperidine-1-carbonyl)piperazin-1-yl)-3,3-dimethyl-1-oxobutan-2-yl)carbamoyl)benzo[b]thiophen-5-yl)difluoromethyl)phosphonic acid], the DC50 is above 10 µM.
